Test [1] addresses T1, Full length DGKα (D21-10BG, SignalChem) (Homo sapiens, UniProt P23743).
T1 construct: Full length DGKα (D21-10BG, SignalChem); purchased SignalChem D21-10BG
Briefly: Biochemical DGK IC50 assay (ADP-Glo, lipid micelle substrate), DGKα. Particulars: 1 hour preincubation, 1 hour reaction, room temperature. In a few lines: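 ADP-Glo luminescence quantified ADP produced after a 1 h room-temperature reaction of full-length DGKα on DAG/PS micelles, in HEPES buffer containing MgCl2, CaCl2, vanadate, BSA and Tween-20. IC50 values derive from activity inhibition over a compound concentration series.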
On the technique in general: ADP-Glo first removes unused ATP, then detects ADP through luciferase.

For test [2], the target named is T2, Full length DGKζ (in-house protein M1-V929) (Homo sapiens, UniProt Q13574).
T2 construct: His (N); TEV site (N); made in house; host or cells: Sf9 insect cells (Bac-to-Bac baculovirus)
Briefly: Biochemical DGK IC50 assay (ADP-Glo, lipid micelle substrate), DGKζ. Particulars: 1 hour preincubation, 1 hour reaction, room temperature. An outline of the steps: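 Enzyme: full-length human DGKζ M1-V929, produced in baculovirus-infected Sf9 cells; substrate DAG/PS micelles. Buffer 50 mM HEPES, 10 mM MgCl2, 0.01 mM CaCl2, 0.1 mM Na3VO4.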

Experimental findings from patent US20260125378A2, “Heterocyclic Compounds” (BeOne Medicines I GmbH, priority 2023, published 2026) are described below.

For orientation: IC50 means the midpoint of a concentration-inhibition curve.

T1 sequence (P23743 whole entry): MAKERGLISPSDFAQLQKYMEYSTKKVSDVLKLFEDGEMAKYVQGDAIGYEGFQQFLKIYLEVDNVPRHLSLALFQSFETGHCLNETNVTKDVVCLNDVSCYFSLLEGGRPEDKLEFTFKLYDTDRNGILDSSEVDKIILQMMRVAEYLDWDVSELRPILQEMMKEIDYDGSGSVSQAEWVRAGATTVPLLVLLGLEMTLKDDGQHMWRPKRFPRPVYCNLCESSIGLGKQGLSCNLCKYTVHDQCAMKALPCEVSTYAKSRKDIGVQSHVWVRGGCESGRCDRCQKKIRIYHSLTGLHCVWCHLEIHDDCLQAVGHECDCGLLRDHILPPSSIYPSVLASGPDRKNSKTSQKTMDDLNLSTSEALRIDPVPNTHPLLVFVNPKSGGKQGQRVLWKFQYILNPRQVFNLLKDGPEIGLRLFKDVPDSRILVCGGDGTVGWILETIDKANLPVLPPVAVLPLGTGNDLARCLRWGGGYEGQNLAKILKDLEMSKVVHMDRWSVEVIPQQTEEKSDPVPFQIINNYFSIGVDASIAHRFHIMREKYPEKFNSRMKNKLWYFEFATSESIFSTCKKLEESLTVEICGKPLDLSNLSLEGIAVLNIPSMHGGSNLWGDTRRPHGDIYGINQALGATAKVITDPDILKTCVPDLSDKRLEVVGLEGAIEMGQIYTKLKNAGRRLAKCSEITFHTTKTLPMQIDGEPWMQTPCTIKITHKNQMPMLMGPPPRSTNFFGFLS
T2 sequence (Q13574 1-929 isoform Q13574-4): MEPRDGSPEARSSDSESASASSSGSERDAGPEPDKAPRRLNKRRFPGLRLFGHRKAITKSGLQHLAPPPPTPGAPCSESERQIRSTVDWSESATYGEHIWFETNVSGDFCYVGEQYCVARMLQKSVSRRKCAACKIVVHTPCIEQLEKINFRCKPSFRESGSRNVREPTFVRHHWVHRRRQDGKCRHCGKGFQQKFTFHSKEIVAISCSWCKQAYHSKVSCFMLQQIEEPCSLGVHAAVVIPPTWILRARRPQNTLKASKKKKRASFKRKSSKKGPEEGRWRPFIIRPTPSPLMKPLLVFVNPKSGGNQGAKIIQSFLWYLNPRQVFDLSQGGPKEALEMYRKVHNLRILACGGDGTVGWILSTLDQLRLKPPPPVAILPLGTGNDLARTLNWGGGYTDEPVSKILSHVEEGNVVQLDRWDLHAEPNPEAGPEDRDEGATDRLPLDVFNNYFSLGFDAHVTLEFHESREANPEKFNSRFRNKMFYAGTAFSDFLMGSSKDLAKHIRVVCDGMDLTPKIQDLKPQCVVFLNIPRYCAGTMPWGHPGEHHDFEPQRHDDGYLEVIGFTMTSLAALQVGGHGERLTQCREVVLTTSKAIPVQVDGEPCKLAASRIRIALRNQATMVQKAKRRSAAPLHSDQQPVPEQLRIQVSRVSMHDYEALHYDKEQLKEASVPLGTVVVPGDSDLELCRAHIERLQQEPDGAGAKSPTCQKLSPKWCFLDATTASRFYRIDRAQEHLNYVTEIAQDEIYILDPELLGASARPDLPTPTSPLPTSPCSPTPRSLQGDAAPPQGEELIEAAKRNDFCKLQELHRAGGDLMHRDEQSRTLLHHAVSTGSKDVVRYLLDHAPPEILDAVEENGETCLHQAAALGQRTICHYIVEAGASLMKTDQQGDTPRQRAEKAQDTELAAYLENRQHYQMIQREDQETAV

`CCn1c(CC#N)nc2c(N3C[C@@H](C)N(C(C)c4cccc(C(C)(C)CO)c4)C[C@@H]3C)nc(=O)n(C)c21` (stereo partly drawn) [Compound A133, 2-(9-ethyl-6-((2S,5R)-4-(1-(3-(1-hydroxy-2-methylpropan-2-yl)phenyl)ethyl)-2,5-dimethylpiperazin-1-yl)-3-methyl-2-oxo-3,9-dihydro-2H-purin-8-yl)acetonitrile]: the IC50 in test [1] was above 150000 nM; in test [2], 111 nM.
For the molecule `CCn1c(CC#N)nc2c(N3C[C@@H](C)N(C(C)c4ccc5c(c4)C(F)(F)CCO5)C[C@@H]3C)nc(=O)n(C)c21` (stereo partly drawn) [Compound A78, 2-(6-((2S,5R)-4-(1-(4,4-difluorochroman-6-yl)ethyl)-2,5-dimethylpiperazin-1-yl)-9-ethyl-3-methyl-2-oxo-3,9-dihydro-2H-purin-8-yl)acetonitrile], the IC50 was determined as 102000 nM in test [1] and 7 nM in test [2].
For `CCn1c(CC#N)nc2c(N3C[C@@H](C)N(C(C)c4ccc(N5CCOCC5)cc4)C[C@@H]3C)nc(=O)n(C)c21` (stereo partly drawn) [Compound A143, 2-(6-((2S,5R)-2,5-dimethyl-4-(1-(4-morpholinophenyl)ethyl)piperazin-1-yl)-9-ethyl-3-methyl-2-oxo-3,9-dihydro-2H-purin-8-yl)acetonitrile], the IC50 was above 150000 nM in test [1] and above 10000 nM in test [2].
Take `CC(c1ccc2c(c1)OC(C)(C)O2)N1C[C@H](C)N(c2nc(=O)n(C)c3c2nc(CC#N)n3C)C[C@H]1C` (single isomer, unassigned) [Compound A98a]: the IC50 came to 14300 nM in test [1] and 5 nM in test [2].
For `CCn1c(CC#N)nc2c(N3C[C@@H](C)N(C(C)c4ccc5c(c4)c(=O)c(C)cn5C)C[C@@H]3C)nc(=O)n(C)c21` (stereo partly drawn) [Compound A193, 2-(6-((2S,5R)-4-(1-(1,3-dimethyl-4-oxo-1,4-dihydroquinolin-6-yl)ethyl)-2,5-dimethylpiperazin-1-yl)-9-ethyl-3-methyl-2-oxo-3,4,5,9-tetrahydro-2H-purin-8-yl)acetonitrile], in that order: above 150000 nM and above 10000 nM.
For `CCn1c(CC#N)nc2c(N3C[C@@H](C)N(C(C)c4cc(F)c5c(c4)OC(C)(C)O5)C[C@@H]3C)c(F)c(=O)n(C)c21` (stereo partly drawn) [Compound A189, 2-(3-ethyl-6-fluoro-7-((2S,5R)-4-(1-(7-fluoro-2,2-dimethylbenzo[d][1,3]dioxol-5-yl)ethyl)-2,5-dimethylpiperazin-1-yl)-4-methyl-5-oxo-4,5-dihydro-3H-imidazo[4,5-b]pyridin-2-yl)acetonitrile], in that order: above 150000 nM and 34 nM.
With `CCn1c(CC#N)nc2c(N3C[C@@H](C)N(C(C)c4cc5c(cn4)OCC(C)(C)O5)C[C@@H]3C)nc(=O)n(C)c21` (stereo partly drawn) [Compound A75, 2-(6-((2S,5R)-4-(1-(2,2-dimethyl-2,3-dihydro-[1,4]dioxino[2,3-c]pyridin-7-yl)ethyl)-2,5-dimethylpiperazin-1-yl)-9-ethyl-3-methyl-2-oxo-3,9-dihydro-2H-purin-8-yl)acetonitrile], the 50% inhibitory concentration (IC50) is above 150000 nM in test [1] and 253 nM in test [2].
Consider `Cc1ccc(C(C)N2C[C@H](C)N(c3cc(=O)n(C)c4c3nc(CC#N)n4C)C[C@H]2C)cc1` (single isomer, unassigned) [Compound A5a], for which the IC50 in test [1] is 5770 nM; in test [2] it was 878 nM.
Regarding `CC(c1ccc(F)cc1C(F)(F)F)N1C[C@H](C)N(c2cc(=O)n(C)c3[nH]c(CC#N)nc23)C[C@H]1C` (single isomer, unassigned) [Compound A9a], the IC50 in test [1] is above 10000 nM; in test [2], 8590 nM.
For `CCn1c(CC#N)nc2c(N3C[C@@H](C)N(C(C)c4ccc5c(c4)C(=O)N(C)CC5)C[C@@H]3C)nc(=O)n(C)c21` (stereo partly drawn) [Compound A93, 2-(6-((2S,5R)-2,5-dimethyl-4-(1-(2-methyl-1-oxo-1,2,3,4-tetrahydroisoquinolin-7-yl)ethyl)piperazin-1-yl)-9-ethyl-3-methyl-2-oxo-3,9-dihydro-2H-purin-8-yl)acetonitrile], the IC50 is above 150000 nM in test [1] and 414 nM in test [2].
For `CC(c1ccc2c(c1)OC(C)(C)O2)N1C[C@H](C)N(c2nc(=O)n(C)c3c2nc(CC#N)n3CC(F)F)C[C@H]1C` (stereo partly drawn) [Compound A166, 2-(9-(2,2-difluoroethyl)-6-((2S,5R)-4-(1-(2,2-dimethylbenzo[d][1,3]dioxol-5-yl)ethyl)-2,5-dimethylpiperazin-1-yl)-3-methyl-2-oxo-3,9-dihydro-2H-purin-8-yl)acetonitrile], in that order: 26100 nM and 14 nM.
The corresponding values for `CC(c1nc2c(cc1F)OCC(C)(C)O2)N1C[C@H](C)N(c2nc(=O)n(C)c3c2nc(CC#N)n3C)C[C@H]1C` (stereo partly drawn) [Compound A162, 2-(6-((2S,5R)-4-(1-(7-fluoro-3,3-dimethyl-2,3-dihydro-[1,4]dioxino[2,3-b]pyridin-6-yl)ethyl)-2,5-dimethylpiperazin-1-yl)-3,9-dimethyl-2-oxo-3,9-dihydro-2H-purin-8-yl)acetonitrile] are 60500 nM and 33 nM.
On to `CCn1c(CC#N)nc2c(N3C[C@@H](C)N(C(C)c4cc5c(cc4Cl)OC(C)(C)O5)C[C@@H]3C)nc(=O)n(C)c21` (stereo partly drawn) [Compound A170, 2-(6-((2S,5R)-4-(1-(6-chloro-2,2-dimethylbenzo[d][1,3]dioxol-5-yl)ethyl)-2,5-dimethylpiperazin-1-yl)-9-ethyl-3-methyl-2-oxo-3,9-dihydro-2H-purin-8-yl)acetonitrile], for which the half-inhibitory concentration (IC50) in test [1] is above 150000 nM; in test [2], 1180 nM.
As for `CCn1c(CC#N)nc2c(N3C[C@@H](C)N(C(C)c4cccc5c4OC(C)(C)O5)C[C@@H]3C)nc(=O)n(C)c21` (stereo partly drawn) [Compound A186, 2-(6-((2S,5R)-4-(1-(2,2-dimethylbenzo[d][1,3]dioxol-4-yl)ethyl)-2,5-dimethylpiperazin-1-yl)-9-ethyl-3-methyl-2-oxo-3,9-dihydro-2H-purin-8-yl)acetonitrile], the figures for the IC50 in test [1] and in test [2] were 143000 nM and 156 nM, respectively.
For the molecule `CCn1c(CC#N)nc2c(N3C[C@@H](C)N(C(C)c4cc(Cl)c5c(c4)OC(C)(C)CO5)C[C@@H]3C)nc(=O)n(C)c21` (stereo partly drawn) [Compound A72, 2-(6-((2S,5R)-4-(1-(8-chloro-3,3-dimethyl-2,3-dihydrobenzo[b][1,4]dioxin-6-yl)ethyl)-2,5-dimethylpiperazin-1-yl)-9-ethyl-3-methyl-2-oxo-3,9-dihydro-2H-purin-8-yl)acetonitrile], the IC50 is above 150000 nM in test [1] and 64 nM in test [2].
For `CC[C@H]1CN(C(C)c2ccc(C(F)(F)F)cc2)[C@H](CC)CN1c1nc(=O)n(C)c2c1nc(CC#N)n2C` (single isomer, unassigned) [Compound A149b], the IC50 in test [1] was 308 nM; in test [2] it was 15 nM.
As for `CCn1c(CC#N)nc2c(N3C[C@@H](C)N(C(C)c4ccc5c(c4Cl)OC(C)(C)O5)C[C@@H]3C)nc(=O)n(C)c21` (single isomer, unassigned) [Compound A172b], the 50% inhibitory concentration (IC50) stood at 116000 nM in test [1] and 8 nM in test [2].
Consider `CCn1c(CC#N)nc2c(N3C[C@@H](C)N(C(C)c4cc(F)c5c(n4)OC(C)(C)CO5)C[C@@H]3C)nc(=O)n(C)c21` (single isomer, unassigned) [Compound A163b], for which the IC50 is above 150000 nM in test [1] and 2070 nM in test [2].
For `CCn1c(CC#N)nc2c(N3C[C@@H](C)N(C(C)c4ccc5c(c4)OC(C)(C)CC5)C[C@@H]3C)nc(=O)n(C)c21` (single isomer, unassigned) [Compound A94a], the IC50 in test [1] came to 16600 nM; in test [2], 6 nM.
The corresponding values for `CC[C@H]1CN(C(C)c2ccc(F)cc2C(F)(F)F)[C@H](CC)CN1c1nc(=O)n(C)c2c1nc(CC#N)n2C` (single isomer, unassigned) [Compound A34a] are above 10000 nM and 392 nM.
Take `CCn1c(=O)nc(N2C[C@@H](C)N(C(C)c3ccc4ncc(C)nc4c3)C[C@@H]2C)c2nc(CC#N)n(C)c21` (single isomer, unassigned) [Compound A53b]: the IC50 in test [1] was above 150000 nM; in test [2] it was 662 nM.
For the molecule `CCn1c(CC#N)nc2c(N3C[C@@H](C)N(C(C)c4ccc5c(n4)OC(C)CO5)C[C@@H]3C)nc(=O)n(C)c21` (stereo partly drawn) [Compound A89, 2-(6-((2S,5R)-2,5-dimethyl-4-(1-(3-methyl-2,3-dihydro-[1,4]dioxino[2,3-b]pyridin-6-yl)ethyl)piperazin-1-yl)-9-ethyl-3-methyl-2-oxo-3,9-dihydro-2H-purin-8-yl)acetonitrile], the IC50 was above 150000 nM in test [1] and 334 nM in test [2].
For the molecule `CCn1c(CC#N)nc2c(N3C[C@@H](C)N(C(C)c4ccc5c(c4F)OC(C)(C)O5)C[C@@H]3C)nc(=O)n(C)c21` (single isomer, unassigned) [Compound A175b], the IC50 was determined as 21400 nM in test [1] and 4 nM in test [2].
Regarding `CCn1c(CC#N)nc2c(N3C[C@@H](C)N(C(C)c4ccc5c(c4)OC4(CCC4)O5)C[C@@H]3C)nc(=O)n(C)c21` (mixture of isomers) [Compound A169, 2-(6-((2S,5R)-2,5-dimethyl-4-(1-(spiro[benzo[d][1,3]dioxole-2,1′-cyclobutan]-5-yl)ethyl)piperazin-1-yl)-9-ethyl-3-methyl-2-oxo-3,9-dihydro-2H-purin-8-yl)acetonitrile], the IC50 in test [1] was 28500 nM; in test [2], 31 nM.
